Results taken from patent publication US11028364B2, “Compositions and methods for modulating an immune response” (President and Fellows of Harvard College, priority 2015, dated 2021).

Legend:
Type in all cases: cell-based, mice
[1] = tested on: B cells cultured with TFH cells; assay: in vitro cultures of B and TFH cells (activated culture) with addition of pathway/metabolic inhibitors; conditions: inhibitor added to activated culture (B + TFH), anti-CD3/IgM
Method: (§1) To determine the mechanisms of how TFH and B cells are altered during direct TFR suppression, an in vitro suppression assay in which TFR cells are cultured with TFH and B cells was utilized. See e.g., Sage et al., J Clin Invest 124, 5191-5204 (2014); Sage et al., Immunity 41, 1026-1039 (2014); Sage et al., Methods Mol Biol 1291, 151-160 (2015). For these assays, FoxP3IRES-GFP mice were immunized with NP-OVA (emulsified in CFA) subcutaneously and isolated draining lymph nodes 7 days later. TFR (sorted as CD4+ICOS+CXCR5+CD19− FoxP3+) cells were added to co-cultures of B (sorted as CD19+) and TFH (sorted as CD4+ICOS+CXCR5+CD19−FoxP3) cells along with anti-CD3 and anti-IgM for 2 to 6 days (FIG. 1A, FIG. 36A, and FIG. 36B).
To determine if suppressing Myc in activated B cells could recapitulate TFR suppression, in vitro suppression assays were performed in which B cells were cultured with TFH cells, TFH and TFR cells, or TFH cells and the Myc inhibitor 10058-F4 (F4w).
The mTOR pathway promotes protein synthesis during activation and has been linked to enhancing cellular metabolism. […] In vitro cultures of B and TFH cells were performed along with either the mTORc1 inhibitor rapamycin or TFR cells. […] Akt can act both upstream and downstream of mTOR to mediate activation signaling.
To determine if inhibiting glycolysis could recapitulate TFR suppression, cultures of B and TFH cells were performed with the addition of 2-deoxyglucose (2DG), a glucose analog that blocks glycolysis.
Therefore, whether inhibitors of purine metabolism could recapitulate TFR suppression in vitro was determined.

[2] = tested on: B cells cultured with TFH and TFR cells (suppressed cultures); assay: in vitro TFR suppression assay (B, TFH and TFR cells) with addition of cytokine; conditions: for amount of secreted antibody in culture supernatants: compared to activated cultures
Method: as §1, with “36B). After 6 days of co-culture of B and TFH cells, robust upregulation of the GC B cell marker GL7 was found as well as class switch recombination to IgG1, the predominant class switched isotype in this model (FIG. 1B). In addition, robust quantities of secreted IgG were found in the culture supernatant when B cells were cultured with TFH cells, but not when B cells were cultured alone. […] CD4^+CXCR5^−ICOS^−Foxp3^+ Treg cells were not able to suppress as efficiently as TFR cells did (FIG. 15). […] Therefore, this culture system is a robust model to study TFR suppression of TFH and B cells.” for “36B).”
It is possible that B cell function genes and multiple metabolic pathways cooperate to induce class switch recombination and antibody production in B cells. […] Therefore, to determine ways to overcome suppressed B cells therapeutically, it is possible that both B cell genes and metabolism would need to be energized to overcome suppression. […] When IL-21 was added to suppression assays, the attenuation in proliferation of B cells mediated by TFR cells was rescued (FIG. 11A).
Since metabolism is essential to facilitate B cell effector functions and is regulated by TFR cells, the metabolic potential of B cells was assessed in suppressed cultures with the addition of IL-21. […] Similarly, Glut1 expression on TFH cells was rescued when IL-21 was added to suppressed cultures. […] Therefore, addition of IL-21 can rescue the glycolytic function of suppressed B cells. It is possible that IL-21 rescues antibody production primarily through enhancing metabolism. To determine if enhanced glycolysis was required for the IL-21 rescue of antibody production in suppressed cultures, glycolysis was blocked to determine if antibody responses could still be rescued in the absence of enhanced metabolism. […] Therefore, IL-21 renders B cells resistant to TFR mediated suppression primarily by enhancing metabolism.
Whether IL-21 restored antibody production by acting directly on B cells was determined. Suppression assays were performed using B cells lacking the receptor for IL-21 (Il21r−/−). […] Since upregulation of GL7 is a robust indicator of B cell activation, its expression in suppressed cultures containing either Il21r+/+ B cells or Il21r−/− B cells and supplemented with IL-21 was compared.
Since IL-21 could be affecting the TFH, B or TFR cell in the suppressed culture, whether the rescue of suppressed metabolism could be due to a combined effect of stimulating B cells and inhibiting TFR suppression (by acting directly on the TFR cell) was determined. […] Therefore, IL-21 rescue of TFR cell suppression of B and TFH cells is the result of modulation of B cells as well as inhibiting TFR cells.

[3] = tested on: B cells from suppressed cultures; assay: RNA-seq transcriptional analysis of B cells from suppressed cultures supplemented with IL-21
Method: In order to determine how B and TFH cells effector states are altered during TFR mediated suppression assays were performed followed by RNA-seq transcriptome analysis. In these experiments B and TFH cells (from immunized FoxP3-IRES-GFP mice) were cultured with or without TFR cells (from immunized ActinCFP FoxP3-IRES-GFP mice) for 6 days in the presence of NP-OVA (the same antigen used to generate the B, TFH and TFR cells). After 4 days of culture, B (sorted as CD19+IA+CD4−) and TFH (sorted as CD4+IA−CD19−CFP−) cells were sorted from the “activated” culture (TFH and B cells alone) or from the “suppressed” culture (TFH, B and TFR cells) and RNAseq transcriptional analysis was performed (FIG. 2A, FIG. 37A and FIG. 37B).
In order to determine which B cell function genes were rescued at the transcriptional level, RNA-seq transcriptional analysis was performed on B cells from activated cultures, from suppressed cultures, and suppressed cultures supplemented with IL-21. […] In the case of Aicda and Pou2af1, it is possible that this may be due to the epigenetic modification of these gene loci by TFR cells, however this was not tested directly.
Therefore, IL-21 overcomes TFR suppression by stimulating B cells as well as metabolic pathways.

[4] = cytokine added to suppressed culture
[5] = cytokine added to suppressed cultures
[6] = Il21r−/− B cells, suppressed cultures plus IL-21
[7] = suppressed cultures with vs without IL-21

Q: `O=CC[C@@H](O)[C@H](O)[C@H](O)CO` [2DG, 2-deoxyglucose] was tested. Which “secreted antibody / antibody production in culture supernatants” value (shortened to “secreted antibody / antibody production”) [1] did it give?
A: robust suppression

Q: With `CCc1ccc(/C=C2/SC(=S)NC2=O)cc1` [10058-F4] as the molecule, how does the “class switch recombination (IgG1+GL7+ B cells)” value (“class switch recombination” for short) [1] read?
A: slight diminishment

Q: And the “secreted antibody / antibody production” value [1]?
A: robustly attenuated

Q: `Cn1cnc([N+](=O)[O-])c1Sc1ncnc2nc[nH]c12` [AZA, azathioprine] was tested. Which “class switch recombination” value [1] did it give?
A: potently suppressed

Q: And the “secreted antibody / antibody production” value [1]?
A: robust suppression

Q: What does the source list for `CN(Cc1cnc2nc(N)nc(N)c2n1)c1ccc(C(=O)N[C@@H](CCC(=O)O)C(=O)O)cc1` [MTX, Methotrexate]?
A: class switch recombination (IgG1+GL7+ B cells) [1]: potently suppressed; secreted antibody / antibody production in culture supernatants [1]: robustly suppresses

Q: With IL-6: another Stat3 signaling cytokine as the molecule, how does the “amount of secreted antibody in culture supernatants” value (shortened to “amount of secreted antibody”) [2, 4] read?
A: able to rescue

Q: What about the “lactate production in culture supernatants” value [2, 5] of the same molecule?
A: substantially (although not completely) rescue

Q: “IL-21: cytokine essential in the germinal center reaction” was tested. Which “GL7 expression in B cells” value ([2]; Il21r+/+ B cells, suppressed cultures plus IL-21) did it give?
A: restored

Q: What about the “GL7 expression in B cells” value [2, 6] of the same molecule?
A: not

Q: What about the “antibody responses (IgG1+GL7+ B cells)” value [2, 6] of the same molecule?
A: no evidence was found that antibody responses were restored

Q: What about the “number of B cells” value [2, 6] of the same molecule?
A: did not abolish the increase

Q: And the “restoration of CSR” value [2, 6]?
A: prevent the restoration

Q: What about the “restoration of Glut1 expression on B cells” value [2, 6] of the same molecule?
A: prevent the restoration

Q: And the “proliferation of B cells (Cell Trace Violet dilution)” value ([2]; cytokine added to suppressed culture (B + TFH + TFR))?
A: rescued

Q: And the “class switch recombination” value ([2]; cytokine added to suppressed culture, compared to activated culture)?
A: much higher

Q: What about the “amount of secreted antibody” value [2, 4] of the same molecule?
A: mostly rescued

Q: And the “Glut1 expression on B cells” value [2, 5]?
A: completely rescued

Q: What about the “Glut1 expression on TFH cells” value [2, 5] of the same molecule?
A: rescued

Q: And the “glucose consumption in the culture” value [2, 5]?
A: almost completely rescued

Q: What about the “lactate production in culture supernatants” value [2, 5] of the same molecule?
A: substantially (although not completely) rescue

Q: And the “rescue of antibody production when glycolysis is blocked” value ([2]; suppressed cultures plus IL-21 with addition of 2-deoxyglucose (2DG))?
A: not being able to rescue suppression

Q: And the “Glut1 expression in TFR cells” value [2, 7]?
A: higher

Q: And the “intracellular Ki67 staining in TFR cells” value [2, 7]?
A: much less

Q: And the “genes differentially expressed on suppression that are rescued (RNA-seq)” value ([3]; 12 genes differential in both suppressed vs IL-21 rescue and suppressed vs activated)?
A: only Ighg1 and Ighg2c were ‘rescued’

Q: What about the “Aicda, Xbp1 and Pou2af1 transcripts (RNA-seq)” value ([3]; suppressed plus IL-21 cultures) of the same molecule?
A: did not show any evidence of rescue

Q: What about the “metabolic pathways (ssGSEA on RNA-seq)” value ([3]; suppressed plus IL-21 cultures) of the same molecule?
A: some rescue of many metabolic pathways

Q: And the “B cell function gene transcripts (RNA-seq)” value ([3]; suppressed vs. suppressed plus IL-21 cultures)?
A: only transcripts for the individual IgG isotypes (Ighg1, Ighg2c, Ighg2b, Igha) showed evidence of significant upregulation

B1: IL-4: cytokine added to suppressed cultures (protein, UniProt P05112 25-153, looked up)
Interleukin-4: HKCDITLQEIIKTLNSLTEQKTLCTELTVTDIFAASKNTTEKETFCRAATVLRQFYSHHEKDTRCLGATAQQFHRHKQLIRFLKRLDRNLWGLAGLNSCPVKEANQSTLENFLERLKTIMREKYSKCSS
Q: With B1 as the molecule, how does the “amount of secreted antibody” value [2, 4] read?
A: did not occur
